Experimental data published in patent US4933347A, “Diamidines and bis(imidazolines) for the treatment of and prophylaxis against pneumocystis carinii pneumonia” (University of North Carolina at Chapel Hill, priority 1988, dated 1990).

Assays:
[1] = Toxicity of amidines in rats (standard laboratory procedure); assay type: in vivo
Procedure: Compounds having the structure represented by Formula I were synthesized in accordance with the appropriate procedures discussed previously. The reaction schemes shown in Charts I-III specifically identify the methodology used to synthesize the compounds of the respective examples. The compounds which were synthesized are shown in Table IA and the elemental analysis and melting points of the compounds are shown in Table IB. Most of the compounds were tested for toxicity in rats using standard laboratory procedure and the results of that toxicity testing are shown in Table XII. The compounds of Examples 31, 32, and 34 were not synthesized but may be synthesized in the general manner discussed previously.

Pneumocystis carinii = assay: Treatment of Pneumocystis carinii pneumonia in Sprague-Dawley rats (extent of disease by histologic score); assay type: in vivo, male Sprague-Dawley rats; details: for Extent of Disease by Histologic Score: number of animals with score 0.5 / Extent of Disease by Histologic Score: number of animals with score 1 / Extent of Disease by Histologic Score: number of animals with score 2 / Extent of Disease by Histologic Score: number of animals with score 3 / Extent of Disease by Histologic Score: number of animals with score 4: 14 days; for Extent of Disease by Histologic Score: number of animals with score 0.5 / Extent of disease by histologic score (combined): number of animals in scoring group 0.5: 0.5 = <10 cysts found per 2 sections; for Extent of Disease by Histologic Score: number of animals with score 1 / Extent of disease by histologic score (combined): number of animals in scoring group 1: 1 = scattered cysts, <5% of lung involved; for Extent of Disease by Histologic Score: number of animals with score 2 / Extent of disease by histologic score (combined): number of animals in scoring group 2: 2 = scattered cysts; for Extent of Disease by Histologic Score: number of animals with score 2: 5-10% lung involved or small foci of infection; for Extent of Disease by Histologic Score: number of animals with score 3 / Extent of disease by histologic score (combined): number of animals in scoring group 3: 3 = scattered cysts; for Extent of Disease by Histologic Score: number of animals with score 3: 10-50% of lung involved with some intense areas of infection; for Extent of Disease by Histologic Score: number of animals with score 4: 4 = >50% of lung involved with many intense areas of focal infection; for Extent of disease by histologic score (combined): number of animals in scoring group 0.5 / Extent of disease by histologic score (combined): number of animals in scoring group 1 / Extent of disease by histologic score (combined): number of animals in scoring group 2 / Extent of disease by histologic score (combined): number of animals in scoring group 3 / Extent of disease by histologic score (combined): number of animals in scoring group 4: Table XII composite; for Extent of disease by histologic score (combined): number of animals in scoring group 2: 5-10% of lung involved; for Extent of disease by histologic score (combined): number of animals in scoring group 3: 10-50% of lung involved; for Extent of disease by histologic score (combined): number of animals in scoring group 4: 4 = >50% of lung involved
[2] = 10 mg/kg unless otherwise noted
[3] = dose as in value, else not given in Table XIII (10 mg/kg test dose)

Structure (SMILES) | Extent of Disease by Histologic Score: number of animals with score 0.5 (Pneumocystis carinii; 5 mg/kg i.v. daily) | Extent of Disease by Histologic Score: number of animals with score 1 (Pneumocystis carinii; 5 mg/kg i.v. daily) | Extent of Disease by Histologic Score: number of animals with score 2 (Pneumocystis carinii; 5 mg/kg i.v. daily) | Extent of Disease by Histologic Score: number of animals with score 3 (Pneumocystis carinii; 5 mg/kg i.v. daily) | Extent of Disease by Histologic Score: number of animals with score 4 (Pneumocystis carinii; 5 mg/kg i.v. daily) | Extent of disease by histologic score (combined): number of animals in scoring group 0.5 (Pneumocystis carinii; tested at 5 mg/kg) | Extent of disease by histologic score (combined): number of animals in scoring group 1 (Pneumocystis carinii; tested at 5 mg/kg) | Extent of disease by histologic score (combined): number of animals in scoring group 2 (Pneumocystis carinii; tested at 5 mg/kg) | Extent of disease by histologic score (combined): number of animals in scoring group 3 (Pneumocystis carinii; tested at 5 mg/kg) | Extent of disease by histologic score (combined): number of animals in scoring group 4 (Pneumocystis carinii; tested at 5 mg/kg) | Toxicity of amidines: Effect [1, 3] | other results
N=C(N)c1ccc(NCCCCNc2ccc(C(=N)N)cc2)cc1 [Example 8] |  |  |  |  |  |  |  |  |  |  |  | Deaths by day 7 ([1]; rat, in vivo): 3 deaths; Extent of Disease by Histologic Score: number of animals with score 0.5 (Pneumocystis carinii; 10 mg/kg i.v. daily): 3 animals; Extent of Disease by Histologic Score: number of animals with score 1 (Pneumocystis carinii; 10 mg/kg i.v. daily): 1 animals; Extent of Disease by Histologic Score: number of animals with score 2 (Pneumocystis carinii; 10 mg/kg i.v. daily): 0 animals; Extent of Disease by Histologic Score: number of animals with score 3 (Pneumocystis carinii; 10 mg/kg i.v. daily): 0 animals; Extent of Disease by Histologic Score: number of animals with score 4 (Pneumocystis carinii; 10 mg/kg i.v. daily): 0 animals; Efficacy in treating PCP compared with pentamidine (Pneumocystis carinii; [2]): better than or equal to pentamidine; Extent of disease by histologic score (combined): number of animals in scoring group 0.5 (Pneumocystis carinii; 10 mg/kg): 3 animals; Extent of disease by histologic score (combined): number of animals in scoring group 1 (Pneumocystis carinii; 10 mg/kg): 1 animals; Extent of disease by histologic score (combined): number of animals in scoring group 2 (Pneumocystis carinii; 10 mg/kg): 0 animals; Extent of disease by histologic score (combined): number of animals in scoring group 3 (Pneumocystis carinii; 10 mg/kg): 0 animals; Extent of disease by histologic score (combined): number of animals in scoring group 4 (Pneumocystis carinii; 10 mg/kg): 0 animals
COc1cc(C(=N)N)ccc1OCCCCOc1ccc(C(=N)N)cc1OC [Example 11] | 3 animals | 4 animals | 1 animals | 0 animals | 0 animals | 3 animals | 4 animals | 1 animals | 0 animals | 0 animals |  | Toxicity of amidines: Effect ([1]; rat, in vivo, 5 mg/kg): None; Efficacy in treating PCP compared with control (Pneumocystis carinii; compound at 5 mg/kg): significantly better, at one half the dose, than the control
N=C(N)c1ccc(OCCCCCOc2ccc(C(=N)N)cc2[N+](=O)[O-])c([N+](=O)[O-])c1 [Example 13] | 3 animals | 2 animals | 3 animals | 0 animals | 0 animals | 0 animals | 2 animals | 4 animals | 2 animals | 0 animals | Acute toxicity, death at 10 mg/kg | 
N=C(N)c1ccc(NCCCCCNc2ccc(C(=N)N)cc2)cc1 [Example 17] |  |  |  |  |  |  |  |  |  |  |  | Deaths by day 13 ([1]; rat, in vivo): 2 deaths; Extent of Disease by Histologic Score: number of animals with score 0.5 (Pneumocystis carinii; 10 mg/kg i.v. daily): 1 animals; Extent of Disease by Histologic Score: number of animals with score 1 (Pneumocystis carinii; 10 mg/kg i.v. daily): 2 animals; Extent of Disease by Histologic Score: number of animals with score 2 (Pneumocystis carinii; 10 mg/kg i.v. daily): 3 animals; Extent of Disease by Histologic Score: number of animals with score 3 (Pneumocystis carinii; 10 mg/kg i.v. daily): 1 animals; Extent of Disease by Histologic Score: number of animals with score 4 (Pneumocystis carinii; 10 mg/kg i.v. daily): 0 animals; Efficacy in treating PCP compared with pentamidine (Pneumocystis carinii; [2]): better than or equal to pentamidine; Extent of disease by histologic score (combined): number of animals in scoring group 0.5 (Pneumocystis carinii; 10 mg/kg): 1 animals; Extent of disease by histologic score (combined): number of animals in scoring group 1 (Pneumocystis carinii; 10 mg/kg): 2 animals; Extent of disease by histologic score (combined): number of animals in scoring group 2 (Pneumocystis carinii; 10 mg/kg): 3 animals; Extent of disease by histologic score (combined): number of animals in scoring group 3 (Pneumocystis carinii; 10 mg/kg): 1 animals; Extent of disease by histologic score (combined): number of animals in scoring group 4 (Pneumocystis carinii; 10 mg/kg): 0 animals; Efficacy in treating PCP compared with related compounds of the series (Pneumocystis carinii; effect of chain length or substituent): least effective
N=C(N)c1ccc(NCCCCCNc2ccc(C(=N)N)cc2[N+](=O)[O-])c([N+](=O)[O-])c1 [Example 18] | 1 animals | 3 animals | 0 animals | 2 animals | 1 animals | 1 animals | 3 animals | 0 animals | 2 animals | 1 animals | Acute toxicity - death at 10 mg/kg | Efficacy in treating PCP compared with control (Pneumocystis carinii; compound at 5 mg/kg): better than the control; Efficacy in treating PCP compared with pentamidine (Pneumocystis carinii; compound at 5 mg/kg): less effective than pentamidine
N=C(N)c1ccc(OCCCCCCOc2ccc(C(=N)N)cc2N)c(N)c1 [Example 22] | 0 animals | 1 animals | 4 animals | 3 animals | 0 animals | 0 animals | 1 animals | 4 animals | 3 animals | 0 animals | Acute toxicity - death at 10 mg/kg | Toxicity (words in running text) ([1]; rat, in vivo): toxic; Efficacy in treating PCP compared with pentamidine (Pneumocystis carinii; compound at 5 mg/kg): significantly less effective than the other compounds or pentamidine
N=C(N)c1ccc(OCCCCOc2ccc(C(=N)N)cc2Cl)c(Cl)c1 [Example 24] |  |  |  |  |  |  |  |  |  |  |  | Toxicity of amidines: Effect ([1]; rat, in vivo, 2.5 mg/kg): None; Extent of Disease by Histologic Score: number of animals with score 0.5 (Pneumocystis carinii; 2.5 mg/kg i.v. daily): 0 animals; Extent of Disease by Histologic Score: number of animals with score 1 (Pneumocystis carinii; 2.5 mg/kg i.v. daily): 1 animals; Extent of Disease by Histologic Score: number of animals with score 2 (Pneumocystis carinii; 2.5 mg/kg i.v. daily): 2 animals; Extent of Disease by Histologic Score: number of animals with score 3 (Pneumocystis carinii; 2.5 mg/kg i.v. daily): 3 animals; Extent of Disease by Histologic Score: number of animals with score 4 (Pneumocystis carinii; 2.5 mg/kg i.v. daily): 2 animals; Extent of disease by histologic score (combined): number of animals in scoring group 0.5 (Pneumocystis carinii; tested at 2.5 mg/kg): 0 animals; Extent of disease by histologic score (combined): number of animals in scoring group 1 (Pneumocystis carinii; tested at 2.5 mg/kg): 1 animals; Extent of disease by histologic score (combined): number of animals in scoring group 2 (Pneumocystis carinii; tested at 2.5 mg/kg): 2 animals; Extent of disease by histologic score (combined): number of animals in scoring group 3 (Pneumocystis carinii; tested at 2.5 mg/kg): 3 animals; Extent of disease by histologic score (combined): number of animals in scoring group 4 (Pneumocystis carinii; tested at 2.5 mg/kg): 2 animals
